From US20210094954A1, “PREPARATION METHODS AND APPLICATIONS OF 3,5-DISUBSTITUTED METHYLPYRAZOLO[1,5-A]PYRIMIDINE-7-HYDROXYLIC SALTS” (priority 2019, published 2021) come the findings set out here.

Read-outs that look alike come from different tables or passages of the source.

Holding throughout (assay type): cell-based
In test [1] the test system is Bacillus cereus 2. Nature of the test: microbe, parasite or virus in culture. The following applies: Bacillus cereus, 2; 37° C., 24 hours; read-out: MIC values of in vitro antibacterial test results.
The subject of test [2] is Bacillus subtilis 168. Nature of the test: microbe, parasite or virus in culture. Conditions: Bacillus subtilis, 168; 37° C., 24 hours; read-out: MIC values of in vitro antibacterial test results.
The subject of test [3] is Enterococcus faecalis 29212. Nature of the test: microbe, parasite or virus in culture. The following applies: Enterococcus faecalis, 29212; 37° C., 24 hours; read-out: MIC values of in vitro antibacterial test results.
Test [4] relates to Enterococcus faecalis F2518(VRE). In words: microbe, parasite or virus in culture. Conditions: Enterococcus faecalis, VRE, 24 h, read-out: MIC values of in vitro antibacterial test results.
The test system of test [5] is Staphylococcus aureus 29231. Nature of the test: microbe, parasite or virus in culture. The following applies: Staphylococcus aureus, 29231; 37° C., 24 hours; read-out: MIC values of in vitro antibacterial test results.
Test [6] has as its system Staphylococcus aureus 43300(MRSA). In words: microbe, parasite or virus in culture. The following applies: Staphylococcus aureus, MRSA.
The subject of test [7] is Staphylococcus aureus 703(MRSA). In words: microbe, parasite or virus in culture. The following applies: Staphylococcus aureus, MRSA.
The subject of test [8] is Streptococcus pneumoniae 6303 (PRSP). In words: microbe, parasite or virus in culture. Conditions: Streptococcus pneumoniae, PRSP, 24 h, read-out: MIC values of in vitro antibacterial test results.
Test [9] relates to Streptococcus pneumoniae M2. In words: microbe, parasite or virus in culture. Conditions: Streptococcus pneumoniae, M2; 37° C., 24 hours; read-out: MIC values of in vitro antibacterial test results.
Test [10] concerns Streptococcus agalactia B group. In words: microbe, parasite or virus in culture. Conditions: Streptococcus; 37° C., 24 hours; read-out: MIC values of in vitro antibacterial test results.
Test [11] concerns Streptococcus pneumoniae 10351. Nature of the test: microbe, parasite or virus in culture. The following applies: Streptococcus pneumoniae, 10351; 37° C., 24 hours; read-out: MIC values of in vitro antibacterial test results.
For test [12], the system named is Bacillus anthracis Bacillus 1. Nature of the test: microbe, parasite or virus in culture. The following applies: Bacillus anthracis, 24 h, read-out: MIC values of in vitro antibacterial test results.
The subject of test [13] is Diphtheria bacilli. In words: organism not typed. The following applies: 37° C., 24 hours; read-out: MIC values of in vitro antibacterial test results.
Test [14] concerns Clostridium perfringens. In words: microbe, parasite or virus in culture. Conditions: Clostridium perfringens, 24 h, read-out: MIC values of in vitro antibacterial test results.
For test [15], the system named is Oral Candida. Nature of the test: microbe, parasite or virus in culture. Conditions: Candida.
The subject of test [16] is Peel fungus. In words: organism not typed. The following applies: 37° C., 24 hours; read-out: MIC values of in vitro antibacterial test results.
The subject of test [17] is F2518(VRE), Staphylococcus aureus resistant strain 43300(MRSA), 703 (MRSA), pneumococcal resistance bacteria 6303(PRSP). In words: microbe, parasite or virus in culture. The following applies: read-out: MIC values (μM).
Where [18] appears, read: 24 h, read-out: MIC values of in vitro antibacterial test results.
[19] abbreviates: 37° C., 24 hours, read-out: MIC values of in vitro antibacterial test results.

With `Cc1nn2c([O-])cc(-c3ccc(N(C)C)nc3)nc2c1-c1ccc(F)cc1F.[Na+]` [Compound 18, Sodium 3-(2,4-difluorophenyl)-5-(6-(dimethylamino)pyridin-3-yl)-2-methylpyrazolo[1,5-α]pyrimidin-7-olate], the MIC in test [1] was under 100 µg/mL; in test [2], over 150 µg/mL; in test [3], under 150 µg/mL; in test [4], under 150 µg/mL; in test [5] it was over 150 µg/mL; in test [6] (setting [18]) it was under 100 µg/mL. Further, the MIC in test [7] (setting [18]) was under 150 µg/mL; in test [8] it was over 150 µg/mL; in test [9], under 100 µg/mL; in [10], over 150 µg/mL; in test [11] it was over 150 µg/mL; in test [12] it was over 150 µg/mL. The MIC in [13] is over 150 µg/mL; in [14], over 150 µg/mL; in test [15] (setting [19]), over 150 µg/mL; in test [16], under 150 µg/mL; in test [17] it was under 100 µg/mL.

On to `Cc1nn2c([O-])cc(-c3ccc(C#N)nc3)nc2c1-c1ccc(F)cc1F.[Na+]` [Compound 15, sodium 5-(6-cyanopyridin-3-yl)-3-(2,4-difluorophenyl)-2-methylpyrazolo[1,5-α]pyrimidin-7-olate], for which the MIC is under 100 µg/mL in test [1]; under 150 µg/mL in test [2]; under 100 µg/mL in test [3]; under 150 µg/mL in test [4]; under 100 µg/mL in test [5]; under 150 µg/mL in [6] (setting [18]). The MIC was under 100 µg/mL in [7] (setting [18]); under 150 µg/mL in test [8]; under 100 µg/mL in test [9]; over 150 µg/mL in test [10]; under 100 µg/mL in [11]; over 150 µg/mL in test [12]. Also, the MIC in test [13] was over 150 µg/mL; in [14], over 150 µg/mL; in test [15] (setting [19]), under 150 µg/mL; in test [16], over 150 µg/mL; in test [17] it was under 100 µg/mL.

As to `Cc1nn2c([O-])cc(-c3ccc(C(F)(F)F)cc3)nc2c1-c1ccc(F)cc1F.[Na+]` [Compound 1, sodium 3-(2,4-difluorophenyl)-2-methyl-5-(4-(trifluoromethyl)-phenyl)pyrazolo[1,5-α]pyrimidin-7-olate], the MIC in [1] is under 100 µg/mL; in test [2], under 100 µg/mL; in [3], under 100 µg/mL; in test [4], under 150 µg/mL; in test [5], under 100 µg/mL; in test [6] (setting [18]), under 100 µg/mL. In addition, the MIC is under 150 µg/mL in [7] (setting [18]); under 100 µg/mL in test [8]; under 100 µg/mL in test [9]; under 150 µg/mL in test [10]; under 100 µg/mL in test [11]; over 150 µg/mL in test [12]. Besides, the MIC was over 150 µg/mL in test [13]; over 150 µg/mL in test [14]; under 100 µg/mL in test [15] (read-out: MIC values (μM)); under 100 µg/mL in test [15] (setting [19]); over 150 µg/mL in test [16]; under 100 µg/mL in test [17].

Regarding `Cc1nn2c([O-])cc(-c3ccc(S(N)(=O)=O)cc3)nc2c1-c1ccc(F)cc1F.[K+]` [Compound 25, Potassium 3-(2,4-difluorophenyl)-2-methyl-5-(4-sulfamoylphenyl)pyrazolo[1,5-α]pyrimidin-7-olate], the MIC in [1] is under 150 µg/mL; in test [2], over 150 µg/mL; in test [3] it was under 150 µg/mL; in test [4] it was under 150 µg/mL; in test [5], over 150 µg/mL; in test [6] (setting [18]), under 150 µg/mL. The MIC in test [7] (setting [18]) was under 150 µg/mL; in test [8], over 150 µg/mL; in [9], under 100 µg/mL; in [10], over 150 µg/mL; in test [11], over 150 µg/mL; in test [12] it was over 150 µg/mL. For the same compound, the MIC in [13] is over 150 µg/mL; in [14] it was over 150 µg/mL; in test [15] (read-out: MIC values (μM)), under 100 µg/mL; in test [15] (setting [19]) it was under 100 µg/mL; in [16], under 150 µg/mL; in test [17], under 100 µg/mL.

As for `Cc1nn2c([O-])cc(-c3ccc(C(N)=O)cc3)nc2c1-c1ccc(F)cc1F.[Na+]` [Compound 11, Sodium 5-(4-carbamoylphenyl)-3-(2,4-difluorophenyl)-2-methylpyrazolo[1,5-α]pyrimidin-7-olate], the MIC in test [1] was under 150 µg/mL; in test [2], over 150 µg/mL; in test [3] it was under 150 µg/mL; in test [4], under 150 µg/mL; in test [5], over 150 µg/mL; in [6] (setting [18]) it was under 100 µg/mL. Also, the MIC in test [7] (setting [18]) was under 150 µg/mL; in test [8], over 150 µg/mL; in test [9], under 100 µg/mL; in [10] it was over 150 µg/mL; in test [11], over 150 µg/mL; in [12], over 150 µg/mL. Also, the MIC is over 150 µg/mL in test [13]; over 150 µg/mL in test [14]; under 150 µg/mL in test [15] (setting [19]); under 150 µg/mL in test [16]; under 100 µg/mL in test [17].

As to `Cc1nn2c([O-])cc(-c3ccc(C#N)cc3)nc2c1-c1ccc(F)cc1F.[Na+]` [Compound 2, Sodium 5-(4-cyanophenyl)-3-(2,4-difluorophenyl)-2-methylpyrazolo[1,5-α]pyrimidin-7-olate], the MIC was under 100 µg/mL in [1]; under 150 µg/mL in test [2]; under 100 µg/mL in test [3]; under 150 µg/mL in [4]; under 100 µg/mL in test [5]; under 50 µg/mL in test [6] (setting [18]). Moreover, the MIC in test [6] (read-out: MIC values (μM)) was under 50 µg/mL; in [7] (setting [18]) it was under 50 µg/mL; in test [7] (read-out: MIC values (μM)), under 50 µg/mL; in test [8], under 150 µg/mL; in test [9], under 150 µg/mL; in test [10] it was under 150 µg/mL. Further, the MIC was under 100 µg/mL in [11]; over 150 µg/mL in [12]; over 150 µg/mL in test [13]; over 150 µg/mL in [14]; under 150 µg/mL in test [15] (setting [19]); under 150 µg/mL in test [16]. Also, the MIC in test [17] was under 100 µg/mL.

For `Cc1nn2c([O-])cc(-c3ccc(C(F)(F)F)nc3)nc2c1-c1ccc(F)cc1F.[Na+]` [Compound 14, Sodium 3-(2,4-difluorophenyl)-2-methyl-5-(6-(trifluoromethyl)pyridin-3-yl)pyrazolo[1,5-α] pyrimidin-7-olate], the MIC in test [1] was under 100 µg/mL; in test [2], under 100 µg/mL; in [3], under 100 µg/mL; in test [4], under 150 µg/mL; in test [5], under 100 µg/mL; in test [6] (setting [18]) it was under 150 µg/mL. For the same compound, the MIC was under 100 µg/mL in test [7] (setting [18]); under 100 µg/mL in test [8]; under 150 µg/mL in test [9]; over 150 µg/mL in [10]; under 100 µg/mL in test [11]; over 150 µg/mL in test [12]. For the same compound, the MIC in test [13] is over 150 µg/mL; in test [14] it was over 150 µg/mL; in test [15] (read-out: MIC values (μM)) it was under 100 µg/mL; in test [15] (setting [19]) it was under 100 µg/mL; in test [16], over 150 µg/mL; in test [17], under 100 µg/mL.

Turning to `COc1ccc(-c2cc([O-])n3nc(C)c(-c4ccc(F)cc4F)c3n2)cc1.[Na+]` [Compound 4, Sodium 3-(2,4-difluorophenyl)-5-(4-methoxyphenyl)-2-methylpyrazolo[1,5-α]pyrimidin-7-olate], the MIC was under 150 µg/mL in test [1]; over 150 µg/mL in test [2]; under 150 µg/mL in test [3]; under 150 µg/mL in test [4]; over 150 µg/mL in test [5]; under 100 µg/mL in test [6] (setting [18]). Also, the MIC in [7] (setting [18]) is under 150 µg/mL; in [8], over 150 µg/mL; in [9], under 150 µg/mL; in test [10], over 150 µg/mL; in test [11], over 150 µg/mL; in test [12], over 150 µg/mL. The MIC in [13] is over 150 µg/mL; in test [14], over 150 µg/mL; in [15] (setting [19]) it was under 150 µg/mL; in [16], under 150 µg/mL; in test [17] it was under 100 µg/mL.
